Test results as given in PubChem BioAssay (NCI).
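48-hour exposure; five concentrations; linearly interpolated endpoints. GI50 is the concentration that inhibits growth by half. At the TGI there is no net growth.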

Experiments:
Test in all cases: inhibition of tumour cell growth, NCI panel, 48 h
786-0 renal = system: 786-0 renal
HOP-62 NSCLC = system: HOP-62 NSCLC
LOX IMVI melanoma = system: LOX IMVI melanoma
M14 melanoma = system: M14 melanoma
MDA-MB-231 breast = system: MDA-MB-231 breast
OVCAR-8 ovarian = system: OVCAR-8 ovarian
UACC-62 melanoma = system: UACC-62 melanoma

| Structure (SMILES) | GI50 (786-0 renal) [µM] | TGI (786-0 renal) [µM] | GI50 (HOP-62 NSCLC) [µM] | TGI (HOP-62 NSCLC) [µM] | GI50 (LOX IMVI melanoma) [µM] | TGI (LOX IMVI melanoma) [µM] | GI50 (M14 melanoma) [µM] | TGI (M14 melanoma) [µM] | GI50 (MDA-MB-231 breast) [µM] | TGI (MDA-MB-231 breast) [µM] | GI50 (OVCAR-8 ovarian) [µM] | TGI (OVCAR-8 ovarian) [µM] | GI50 (UACC-62 melanoma) [µM] | TGI (UACC-62 melanoma) [µM] |
| --- | --- | --- | --- | --- | --- | --- | --- | --- | --- | --- | --- | --- | --- | --- |
| O=C1COc2c(CCNCCN(C(=O)CCNCCc3ccc(Cl)c(Cl)c3)C3CCCCC3)ccc(O)c2N1 | 17.2 | 32.9 | 15.3 | 32.7 | 15.6 | 30.2 | 16.6 | 31.8 | 10.5 | 25.6 | 17.2 | 34 | 15.5 | 30.4 |
| Nc1ccc(N)c2c1C(=O)c1cccc([N+](=O)[O-])c1C2=O | 2.72 | 32.1 | 1.62 | 7.88 | 1.84 | > 100 | 3.37 | > 100 | 27 | > 100 | 2.67 | 19.7 | 1.2 | 5.65 |
| N#Cc1c(N/N=C/c2c(Cl)cccc2Cl)nc(N)nc1N1CCCC1 | 3.93 | > 100 | 1.7 | > 100 | 2.16 | > 100 | 1.36 | > 100 | 3.25 | 42.2 | 3.53 | 40.5 | 1.47 | > 100 |
| c1csc(-c2[nH]nc3c2CCc2ccccc2-3)c1 | 21.3 | 51 | 12.8 | 28.7 | 15.7 | 29.4 | 17.8 | 38 | 0.966 | 19.5 | 18.7 | 56.8 | 13.6 | 27.8 |
| COc1cc(/C=C/C(=O)c2c(-c3ccc(Cl)cc3)nc3sc(C)nn23)cc(OC)c1OC | 51.2 | > 100 | 10.4 | > 100 | 18.4 | > 100 | 55.2 | > 100 | 14.3 | > 100 | 5.62 | > 100 | 5.15 | > 100 |
| COc1ccc(S(=O)(=O)NCCCNc2nccc(-c3c(-c4ccc(F)cc4)nc4sccn34)n2)cc1 | 5.83 | > 100 | 18 | > 100 | 5.53 | > 100 | 8.98 | > 100 | 7.27 | > 100 | 4.3 | > 100 | 3.38 | 74.8 |
| O=C1OC(c2ccccc2)=N/C1=C\c1ccc(N(CCCl)CCCl)cc1 | – | > 100 | – | > 100 | – | > 100 | – | > 100 | – | > 100 | – | > 100 | – | > 100 |
| N#Cc1c(N)nc(N2CCOCC2)c(C#N)c1-c1ccc(Cl)cc1Cl | 19.5 | 44.8 | 28 | 91.6 | 16.7 | 34.2 | 18.3 | 42 | 15.9 | 43.7 | 18.2 | 54.5 | 10.8 | 28.8 |
| COc1ccc(-c2ccc(/C=N/n3c(COc4ccc(Cl)c(C)c4)nn(CN4CCOCC4)c3=S)o2)c([N+](=O)[O-])c1 | 32.5 | > 100 | 38.6 | > 100 | – | – | 25.7 | 66.6 | – | – | 33.5 | > 100 | 30.8 | > 100 |
